Measurements taken from patent US11485762B2, “Compositions and methods for inhibition of L-plastin activity in osteoclasts to reduce bone loss” (University of Maryland, Baltimore, priority 2017, dated 2022).

Tested on: osteoclasts derived from RAW cells
Assay: Podosome organization and migration in osteoclasts derived from RAW cells
Type: cell-based
Settings: compared with P5
Text: C57/BL6 mice were used for osteoclast preparation as described previously (Chellaiah et al., 2000, J. Cell Biol., 148: 665.678; Chellaiah et al., 2007, J. Biol. Chem., 282: 10104-10116). Osteoclasts were generated in vitro using mouse bone marrow (BM) cells as described (Chellaiah et al., 2000, J. Cell Biol., 148: 665-678; Chellaiah et al., 2007, J. Biol. Chem., 282: 10104.10116). Osteoclasts differentiated from RAW 264.7 cells were also used to corroborate a few of the observations made with osteoclasts derived from mouse BM cells. Osteoclasts from RAW 264.7 cells were generated as described previously (Gupta et al., 2003, J Bone Miner Res 18: 669-685). Conditions were established that offer >90% population of mature multinucleated osteoclasts from both mouse bone marrow and RAW cells. […]
Cell migration (phagokinesis and transwell migration) assays were done as described previously (Chellaiah et al., 2000, J. Cell Biol., 148: 665-678). […] Migrated cells at the bottom of the wells were counted in 3-4 independent fields/transwell filter. […] In phagokinesis assay, cell motility was assessed by measuring the areas free of gold particles. By using a grided reticule (Boyce Scientific. Inc.) in the eyepiece of a Nikon microscope, areas free of gold particles were measured using a 10× objective. […]

Sequence: MARGSVSDEE [Peptide P1, TAT-fused small molecular weight (10aa) amino-terminal LPL peptide, unsubstituted (S5S7)]
- migration of osteoclasts: no effect
- pattern of podosome organization: no effect
